Laboratory results taken from ChEMBL document CHEMBL1201862, “PubChem BioAssay data set” (2004).
Calls of active or inactive are those of the source.

Legend:
[1] = molecular target: T1, Tyrosine-protein phosphatase non-receptor type 22 (Homo sapiens, UniProt Q9Y2R2); assay: SAR LYP1 Fluorescent Assay using OMFP substrate for In Vitro dose response studies - Set 2. [Related pubchem assays (depositor defined):AID1779, AID1784, AID2140, AID449726, AID488869]; assay type: functional
T1 sequence (Q9Y2R2 whole entry): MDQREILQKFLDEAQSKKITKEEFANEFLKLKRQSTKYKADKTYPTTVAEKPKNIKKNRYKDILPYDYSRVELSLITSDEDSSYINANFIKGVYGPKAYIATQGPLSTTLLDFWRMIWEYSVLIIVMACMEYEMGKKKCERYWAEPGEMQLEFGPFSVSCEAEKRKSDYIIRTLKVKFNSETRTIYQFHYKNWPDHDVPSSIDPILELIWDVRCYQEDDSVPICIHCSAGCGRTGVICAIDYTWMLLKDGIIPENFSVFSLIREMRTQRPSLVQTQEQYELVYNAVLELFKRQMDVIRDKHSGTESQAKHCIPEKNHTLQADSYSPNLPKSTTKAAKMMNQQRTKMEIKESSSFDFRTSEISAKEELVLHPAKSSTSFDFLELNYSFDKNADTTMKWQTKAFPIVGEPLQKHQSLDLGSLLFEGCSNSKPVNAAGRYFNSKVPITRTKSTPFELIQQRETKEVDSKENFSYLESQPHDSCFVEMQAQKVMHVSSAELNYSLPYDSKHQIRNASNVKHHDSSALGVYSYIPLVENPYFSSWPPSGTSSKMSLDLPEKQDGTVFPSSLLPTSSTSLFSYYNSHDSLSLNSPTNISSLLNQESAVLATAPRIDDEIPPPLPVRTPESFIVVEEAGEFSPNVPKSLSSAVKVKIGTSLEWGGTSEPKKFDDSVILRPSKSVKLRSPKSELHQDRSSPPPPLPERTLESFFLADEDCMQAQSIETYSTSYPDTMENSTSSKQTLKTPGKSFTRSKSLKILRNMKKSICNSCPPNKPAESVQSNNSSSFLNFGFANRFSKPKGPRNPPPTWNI

[2] = molecular target: T2, Tyrosine-protein phosphatase non-receptor type 12 (Homo sapiens, UniProt Q05209); assay: SAR Selectivity Analysis of small molecule inhibitors of PEST using pCAP in a fluorescence assay. [Related pubchem assays (depositor defined):AID1779, AID1784, AID2135]; assay type: functional
T2 sequence (Q05209 whole entry): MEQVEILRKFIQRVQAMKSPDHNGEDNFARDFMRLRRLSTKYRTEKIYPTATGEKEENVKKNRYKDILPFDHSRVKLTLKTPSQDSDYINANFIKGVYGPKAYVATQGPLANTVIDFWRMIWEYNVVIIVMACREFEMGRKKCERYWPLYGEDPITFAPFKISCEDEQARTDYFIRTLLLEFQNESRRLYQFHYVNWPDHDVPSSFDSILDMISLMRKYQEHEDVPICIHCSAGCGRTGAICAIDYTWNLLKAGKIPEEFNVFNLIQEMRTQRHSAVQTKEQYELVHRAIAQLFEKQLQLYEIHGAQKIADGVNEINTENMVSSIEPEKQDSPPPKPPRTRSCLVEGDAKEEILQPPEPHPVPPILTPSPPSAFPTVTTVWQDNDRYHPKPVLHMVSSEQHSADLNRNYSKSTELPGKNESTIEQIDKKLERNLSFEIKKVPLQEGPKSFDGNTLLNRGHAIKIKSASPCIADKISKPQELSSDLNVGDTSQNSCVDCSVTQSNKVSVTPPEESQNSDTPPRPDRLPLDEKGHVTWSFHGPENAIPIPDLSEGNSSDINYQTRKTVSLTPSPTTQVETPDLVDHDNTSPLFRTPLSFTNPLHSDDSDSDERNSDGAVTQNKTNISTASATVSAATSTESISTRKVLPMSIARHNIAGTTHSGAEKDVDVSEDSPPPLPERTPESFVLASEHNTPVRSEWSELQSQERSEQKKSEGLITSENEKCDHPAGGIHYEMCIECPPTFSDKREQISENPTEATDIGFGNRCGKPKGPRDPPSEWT

[3] = molecular target: T1, Tyrosine-protein phosphatase non-receptor type 22; assay: SAR LYP1 Fluorescent Assay using OMFP substrate for In Vitro dose response studies - Set 3. [Related pubchem assays (depositor defined):AID1779, AID1784, AID2140, AID2686]; assay type: functional
[4] = molecular target: T3, Tyrosine-protein phosphatase non-receptor type 7 (Homo sapiens, UniProt P35236); assay: inhibition of hematopoietic tyrosine phosphatase HePTP – biochemical, set 2, SAR follow-up (AID 449736); assay type: functional
T3 sequence (P35236 whole entry): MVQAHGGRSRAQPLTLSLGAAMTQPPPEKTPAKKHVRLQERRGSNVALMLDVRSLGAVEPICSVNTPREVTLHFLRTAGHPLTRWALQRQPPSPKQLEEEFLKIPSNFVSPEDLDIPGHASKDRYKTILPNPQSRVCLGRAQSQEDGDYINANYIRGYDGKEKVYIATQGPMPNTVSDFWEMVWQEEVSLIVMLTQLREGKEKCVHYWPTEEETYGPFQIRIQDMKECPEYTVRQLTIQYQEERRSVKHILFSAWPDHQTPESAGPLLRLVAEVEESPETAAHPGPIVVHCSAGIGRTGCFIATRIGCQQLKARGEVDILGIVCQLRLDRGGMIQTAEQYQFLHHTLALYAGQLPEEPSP

[5] = molecular target: T1, Tyrosine-protein phosphatase non-receptor type 22; assay: PubChem AID 2140
[6] = molecular target: T1, Tyrosine-protein phosphatase non-receptor type 22; assay: inhibition of lymphoid tyrosine phosphatase LYP – biochemical, pCAP fluorogenic substrate, fluorescence, set 3, SAR follow-up (AID 449727); assay type: functional
[7] = molecular target: T1, Tyrosine-protein phosphatase non-receptor type 22; assay: PubChem AID 2135
[8] = molecular target: T1, Tyrosine-protein phosphatase non-receptor type 22; assay: SAR LYP1 Fluorescent Assay using pCAP substrate for In Vitro dose response studies - Set 2. [Related pubchem assays (depositor defined):AID1779, AID1784, AID2135, AID449727]; assay type: functional
[9] = Intein inhibitors as potential Tuberculosis drugs, a cytotoxicity screen. [Related pubchem assays (depositor defined):AID2221, AID2223, AID434968, AID435010, AID449749, AID449750, AID489010]; assay type: functional
[10] = molecular target: T4, Replicative DNA helicase DnaB (Mycobacterium tuberculosis, UniProt P9WMR3); assay: DnaB intein splicing inhibitors, dose response, biochemical, cell-free fluorescence (AID 449749); assay type: functional
T4 sequence (P9WMR3 whole entry): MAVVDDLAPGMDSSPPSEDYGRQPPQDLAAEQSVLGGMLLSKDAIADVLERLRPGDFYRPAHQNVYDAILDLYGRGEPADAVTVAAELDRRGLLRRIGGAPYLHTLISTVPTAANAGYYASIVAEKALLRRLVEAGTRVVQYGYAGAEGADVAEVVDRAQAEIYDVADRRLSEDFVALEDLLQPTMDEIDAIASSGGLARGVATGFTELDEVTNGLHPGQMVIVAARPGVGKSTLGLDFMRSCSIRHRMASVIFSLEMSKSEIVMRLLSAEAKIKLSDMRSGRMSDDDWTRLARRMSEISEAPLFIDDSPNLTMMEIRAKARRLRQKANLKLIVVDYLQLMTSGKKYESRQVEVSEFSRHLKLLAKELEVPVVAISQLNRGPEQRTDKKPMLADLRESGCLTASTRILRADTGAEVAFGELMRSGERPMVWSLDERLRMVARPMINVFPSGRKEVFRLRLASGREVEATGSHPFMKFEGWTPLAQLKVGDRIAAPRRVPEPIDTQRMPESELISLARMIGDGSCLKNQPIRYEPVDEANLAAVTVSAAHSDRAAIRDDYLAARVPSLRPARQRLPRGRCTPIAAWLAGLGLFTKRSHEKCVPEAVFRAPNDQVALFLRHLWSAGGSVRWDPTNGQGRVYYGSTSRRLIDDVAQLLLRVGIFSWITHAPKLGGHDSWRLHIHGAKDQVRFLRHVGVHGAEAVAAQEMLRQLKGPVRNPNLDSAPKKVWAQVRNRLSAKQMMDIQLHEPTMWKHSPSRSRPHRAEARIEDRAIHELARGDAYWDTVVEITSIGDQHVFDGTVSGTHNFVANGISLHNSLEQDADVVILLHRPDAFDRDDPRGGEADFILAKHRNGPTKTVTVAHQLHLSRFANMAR

[11] = blockers of bursicon-stimulated LGR2 cAMP reporter – cell-based, HEK293, CRE-luciferase reporter, cherry pick, set 2, dose response (AID 743343); assay type: functional;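 further: transfected cells were stimulated with diluted bursicon conditioned medium after compound addition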
[12] = viability of uninfected HEp-2 cells – cell-based, HTS, cytotoxicity control for RSV inhibitor project, dose response (AID 2410); assay type: functional; conditions: human respiratory syncytial virus
[13] = A549 cell cytotoxicity, dose response, cytotoxicity control, plate reader, cherry-pick, antagonist series (AID 743412); assay type: functional, cell-based
[14] = blockade of melanocortin 4 receptor signaling – cell-based, plate reader, cherry pick, counter-screen for LGR2 antagonist project, dose response (AID 743444); assay type: functional;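 further: transfected HEK 293 cells stimulated with alpha-MSH peptide; potency of inhibitors of the alpha-MSH evoked signal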
Protein RecA = molecular target: T5, Protein RecA (Mycobacterium tuberculosis, UniProt P9WHJ3); assay: Fluorescence Cell-Free Homogeneous Dose Retest to Identify Inhibitors of RecA-Intein Splicing Activity. [Related pubchem assays (depositor defined):AID2097, AID2223, AID489010, AID492950]; assay type: functional
T5 sequence (P9WHJ3 whole entry): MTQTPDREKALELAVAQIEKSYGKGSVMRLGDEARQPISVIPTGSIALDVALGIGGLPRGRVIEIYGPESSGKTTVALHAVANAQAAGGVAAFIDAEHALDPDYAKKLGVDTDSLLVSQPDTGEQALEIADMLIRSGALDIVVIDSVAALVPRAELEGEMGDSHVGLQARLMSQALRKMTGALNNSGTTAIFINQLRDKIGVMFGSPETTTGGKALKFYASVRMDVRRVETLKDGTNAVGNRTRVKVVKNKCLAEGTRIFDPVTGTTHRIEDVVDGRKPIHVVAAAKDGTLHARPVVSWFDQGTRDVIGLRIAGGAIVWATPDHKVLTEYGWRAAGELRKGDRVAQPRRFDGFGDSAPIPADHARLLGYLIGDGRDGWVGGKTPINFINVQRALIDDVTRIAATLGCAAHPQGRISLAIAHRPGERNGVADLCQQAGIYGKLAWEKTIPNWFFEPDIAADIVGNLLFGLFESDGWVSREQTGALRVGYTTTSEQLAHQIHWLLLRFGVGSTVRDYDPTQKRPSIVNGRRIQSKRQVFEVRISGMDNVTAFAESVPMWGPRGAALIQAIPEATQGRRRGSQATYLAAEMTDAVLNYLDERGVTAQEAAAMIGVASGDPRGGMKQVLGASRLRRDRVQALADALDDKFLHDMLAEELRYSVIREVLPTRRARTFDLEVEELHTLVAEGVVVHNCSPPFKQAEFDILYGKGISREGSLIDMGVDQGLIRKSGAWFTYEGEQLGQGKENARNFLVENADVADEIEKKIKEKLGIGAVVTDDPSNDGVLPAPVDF

[15] = viability loss in HEK293 cells – cell-based, plate reader, cherry-picked samples, cytotoxicity control, dose response (AID 743446); assay type: functional
[16] = toxicity toward HepG2 liver cells – cell-based, plate reader, cherry-pick, antagonist series, cytotoxicity control, dose response (AID 743416); assay type: functional
[17] = viability of HCT116 lacking mutant beta-catenin – cell-based, human colon tumor, dose response (AID 1045); assay type: functional;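 further: HCT116 colon tumor cells with beta catenin knocked out; cells exposed to compound for 60 hours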
[18] = luciferase reporter signal suppression in cells – H4 neuroglioma cells, luminescence, dose response (AID 1990); assay type: functional, cell-based
[19] = viability of PTEN-deleted HCT116 cells – cell-based, HCT116 PTEN knockout, dose response (AID 1047); assay type: functional;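 further: HCT116 colon tumor cells with PTEN knocked out; cells exposed to compound for 60 hours before readout; potency for loss of cell viability measured by luminescence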
[20] = alpha-synuclein stem-loop luciferase translation blockers – H4 neuroglioma cells, luminescence, confirmation (AID 1988); assay type: functional, cell-based
INS1 = assay: INS-1E survival protection against cytokine death – cell-based, luminescence, retest, dose response (AID 449756); assay type: functional; conditions: Rattus norvegicus;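 further: cell death triggered by IL-1 beta plus TNF-alpha plus IFN-gamma mixture; protective hits raise ATP signal compared with cytokine alone wells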
[21] = Luminescence Cell-Based Dose Response HTS to Identify Inhibitors of 5'UTR Stem-Loop Driven Prion Protein mRNA Translation in H4 Neuroglioblastoma Cells. [Related pubchem assays: 1827 (Project Summary), 1813 (Primary HTS)]; assay type: functional
[22] = molecular target: Alkaline phosphatase, placental type (Homo sapiens, UniProt P05187); assay: human placental alkaline phosphatase inhibition – biochemical, luminescence, confirmation (AID 1512); assay type: functional
[23] = HGIII-sPLA2 enzyme inhibition potency – biochemical, QFRET, IC50, dose response (AID 743457);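 further: green fluorescence rise as the enzyme cleaves BODIPY PC-A2 in liposomes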

Sequence of Alkaline phosphatase, placental type (P05187 whole entry): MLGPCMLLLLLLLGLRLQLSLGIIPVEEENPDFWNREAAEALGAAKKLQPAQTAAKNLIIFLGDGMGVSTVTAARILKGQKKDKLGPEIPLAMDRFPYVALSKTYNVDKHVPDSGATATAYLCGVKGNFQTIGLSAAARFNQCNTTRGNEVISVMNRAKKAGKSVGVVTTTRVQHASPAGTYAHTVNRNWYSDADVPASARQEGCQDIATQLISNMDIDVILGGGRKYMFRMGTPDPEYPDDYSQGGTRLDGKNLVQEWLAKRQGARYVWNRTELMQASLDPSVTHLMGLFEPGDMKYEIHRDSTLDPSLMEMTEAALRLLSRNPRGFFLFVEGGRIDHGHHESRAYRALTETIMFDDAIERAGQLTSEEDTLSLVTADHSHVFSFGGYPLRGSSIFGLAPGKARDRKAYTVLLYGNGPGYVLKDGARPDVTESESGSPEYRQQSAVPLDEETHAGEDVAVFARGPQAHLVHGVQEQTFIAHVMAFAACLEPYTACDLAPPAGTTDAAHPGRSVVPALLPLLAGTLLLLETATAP

Structure (SMILES): CCOc1cc(/C=C(/C#N)c2cccc(F)c2)cc(Cl)c1OCc1ccc(C(=O)O)cc1
- IC50 [1]: 21.8 µM (active)
- IC50 [2]: 5.08 µM (active)
- IC50 [3]: 34.6 µM (active)
- IC50 [4]: 2.25 µM (active)
- IC50 [5]: > 100 µM (inactive)
- IC50 [6]: 46.7 µM (active)
- IC50 [7]: > 100 µM (inactive)
- IC50 [8]: 36.1 µM (active)

Structure (SMILES): Cc1sc2ncnc(Sc3nnnn3-c3ccccc3)c2c1C
- CC50 [9]: 14.4 µM (active)
- AC50 [10]: 3.83 µM (active)
- AC50 [11]: 4.15 µM (active)
- CC50 [12]: 11.2 µM (active)
- AC50 [13]: 10.9 µM (active)
- AC50 [14]: 3.94 µM (active)
- EC50 (Protein RecA): 3.18 µM (active)
- AC50 [15]: 19.3 µM (active)
- AC50 [16]: 15.4 µM (active)

Structure (SMILES): CCOC(=O)C1CCN(C(=O)c2c(C)oc3c2C(=O)c2ccccc2C3=O)CC1
- EC50 [17]: 3.32 µM (active)
- CC50 [9]: 13.7 µM (active)
- AC50 [10]: 2.06 µM (active)
- EC50 [18]: > 120 µM (not active)
- EC50 [19]: 3.87 µM (active)
- EC50 [20]: 7.82 µM (active)
- EC50 (Protein RecA): 0.645 µM (active)
- AC50 (INS1): 6.25 µM (active)
- EC50 [21]: 18.3 µM (active)

Structure (SMILES): CCN=C(S)NN=C(S)NCc1ccccc1
- IC50 [22]: > 100 µM (inactive)
- IC50 [23]: > 122 µM (inactive)
